Activity calls are given as the source filed them.
Key:
Escherichia coli = assay: microbe, parasite or virus in culture
Cytochrome P450 2D6 = Cytochrome P450 2D6 (Homo sapiens, UniProt P10635);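 note: CYP2D6 member of a cytochrome P450 panel assay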
Cytochrome P450 3A4 = Cytochrome P450 3A4 (Homo sapiens, UniProt P08684);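 note: CYP3A4 tested as one member of a cytochrome P450 panel screen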
Cytochrome P450 2C9 = Cytochrome P450 2C9 (Homo sapiens, UniProt P11712)
Vero = assay: cells; type: functional; conditions: Chlorocebus sabaeus

Sequence of Cytochrome P450 3A4 (P08684 whole entry): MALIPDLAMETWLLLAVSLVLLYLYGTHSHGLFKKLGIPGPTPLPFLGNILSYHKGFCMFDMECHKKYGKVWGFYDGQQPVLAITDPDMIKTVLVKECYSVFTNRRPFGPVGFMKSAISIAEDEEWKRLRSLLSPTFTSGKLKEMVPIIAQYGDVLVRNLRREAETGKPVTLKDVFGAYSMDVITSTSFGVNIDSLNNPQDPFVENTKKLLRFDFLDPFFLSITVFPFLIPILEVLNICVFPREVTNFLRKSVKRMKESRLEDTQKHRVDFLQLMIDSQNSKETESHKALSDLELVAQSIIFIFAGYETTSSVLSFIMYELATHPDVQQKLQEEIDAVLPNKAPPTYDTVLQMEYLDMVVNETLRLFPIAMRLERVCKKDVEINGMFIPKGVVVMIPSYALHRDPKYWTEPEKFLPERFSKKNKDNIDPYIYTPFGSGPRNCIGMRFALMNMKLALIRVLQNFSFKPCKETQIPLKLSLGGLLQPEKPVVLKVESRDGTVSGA
Sequence of Cytochrome P450 2D6 (P10635 whole entry): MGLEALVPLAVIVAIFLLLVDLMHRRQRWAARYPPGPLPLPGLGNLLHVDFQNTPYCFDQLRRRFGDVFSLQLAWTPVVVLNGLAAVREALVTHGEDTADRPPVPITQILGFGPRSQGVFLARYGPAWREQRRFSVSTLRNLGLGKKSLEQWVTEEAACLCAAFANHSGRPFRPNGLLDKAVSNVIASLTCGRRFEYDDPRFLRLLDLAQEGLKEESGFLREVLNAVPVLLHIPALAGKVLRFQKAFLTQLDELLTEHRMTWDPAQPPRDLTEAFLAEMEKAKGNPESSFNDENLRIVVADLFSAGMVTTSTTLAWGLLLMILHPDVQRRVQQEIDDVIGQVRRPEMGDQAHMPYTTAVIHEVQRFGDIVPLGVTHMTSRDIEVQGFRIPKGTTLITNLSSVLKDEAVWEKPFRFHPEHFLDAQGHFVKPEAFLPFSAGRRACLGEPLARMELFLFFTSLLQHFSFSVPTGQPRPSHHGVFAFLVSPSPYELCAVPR
Sequence of Cytochrome P450 2C9 (P11712 whole entry): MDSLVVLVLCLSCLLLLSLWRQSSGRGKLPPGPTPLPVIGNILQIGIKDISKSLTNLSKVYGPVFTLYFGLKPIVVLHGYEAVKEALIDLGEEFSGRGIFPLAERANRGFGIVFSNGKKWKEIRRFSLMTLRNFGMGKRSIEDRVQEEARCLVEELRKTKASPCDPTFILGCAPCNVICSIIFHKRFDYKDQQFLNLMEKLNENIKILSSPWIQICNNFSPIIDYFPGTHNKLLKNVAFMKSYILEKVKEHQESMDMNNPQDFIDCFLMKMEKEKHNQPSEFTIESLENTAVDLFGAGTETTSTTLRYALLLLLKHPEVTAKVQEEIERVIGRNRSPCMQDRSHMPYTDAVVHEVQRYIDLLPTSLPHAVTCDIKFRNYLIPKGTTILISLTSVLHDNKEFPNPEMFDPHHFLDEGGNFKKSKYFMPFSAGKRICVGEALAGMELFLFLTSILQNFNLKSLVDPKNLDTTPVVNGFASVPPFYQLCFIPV

Structure (SMILES)	AC50 (Escherichia coli)	other results
Cc1cc(C(=O)N2CCN(c3ccccc3)CC2)no1	28.2 µM (active)	–
CN(C)C(=O)N1CCCC(C(=O)NCCc2ccccc2)C1 (stereo not drawn)	–	AC50 (Cytochrome P450 2D6): 10 µM (inconclusive); AC50 (Cytochrome P450 3A4): 39.8 µM (inconclusive); AC50 (Cytochrome P450 2C9): inconclusive
COc1ccc(NC(=O)C2CCN(Cc3cnn(-c4ccccc4)c3-n3cccc3)CC2)cc1OC	> 150 µM (inactive)	–
CCC(C)n1nccc1NC(=O)C(C)Cl (stereo not drawn)	31.4 µM (active)	–
CCn1cc(C(=O)NCCCO)c(=O)c2cc(F)c(N3CCN(C)CC3)cc21	2.5 µM (active)	–
COc1ccc(Nc2nc(-c3ccccc3)nc3ccccc23)cc1S(=O)(=O)N1CCOCC1	–	CC50 (Vero): > 25 µM (active)

— ChEMBL document CHEMBL1201862, “PubChem BioAssay data set” (2004)
